Columns and labels:
[1] = In vitro permeation experiment of FP drug-in-adhesive patches in two-chamber diffusion cells; assay type: in vitro ADME, rabbit; settings: for ER (Q24h with enhancer/Q24h without enhancer) for R-FP / Tlag of R-FP / Js of R-FP: permeant R-FP; for ER (Q24h with enhancer/Q24h without enhancer) for R-FP / Tlag of R-FP / Js of R-FP / ER (Q24h with enhancer/Q24h without enhancer) for S-FP / Tlag of S-FP / Js of S-FP / ER (Q24h with enhancer/Q24h without enhancer) for SR-FP / Tlag of SR-FP / Js of SR-FP: patch 5% drug (w/w); for ER (Q24h with enhancer/Q24h without enhancer) for R-FP / ER (Q24h with enhancer/Q24h without enhancer) for S-FP / ER (Q24h with enhancer/Q24h without enhancer) for SR-FP: enhancer equimolar to 5% 4-TER; for Tlag of R-FP / Js of R-FP / Tlag of S-FP / Js of S-FP / Tlag of SR-FP / Js of SR-FP: enhancer equimolar to 5% 4-TER (control: no enhancer); for Js of R-FP / Js of S-FP / Js of SR-FP: mean ± SD, n = 4; for ER (Q24h with enhancer/Q24h without enhancer) for S-FP / Tlag of S-FP / Js of S-FP: permeant S-FP; for ER (Q24h with enhancer/Q24h without enhancer) for SR-FP / Tlag of SR-FP / Js of SR-FP: permeant SR-FP
Text: Male, Japanese big-eared rabbits weighting 2.5–3.0 kg were purchased from the animal experimental center of North China University of Science and Technology. The experimental process was in accordance with the ‘Ethical Guide for Laboratory Animal Investigation’ and was approved by the Animal Experimental Center Committee of North China University of Science and Technology. All efforts were made to minimize animal suffering and to limit the number of animals used.
The hair of back skin was removed by clipper and electrical shaver carefully when the rabbits were anesthetized with ether. Full thickness of back skin was excised after the rabbit was sacrificed by injecting air into the ear veins, and the subcutaneous fat tissue was carefully removed using the surgical scissor and scalpel. The integrity of the skin was confirmed by microscopic observation method. The treated rabbit skin was cut into a size of 1.5 cm × 1.5 cm and stored at –80 °C until use. Before use, it needed to be immersed in physiological saline for 20 min to thaw.
Drug-in-adhesive patch (drug loading of 5% by adhesive) was prepared by using solvent evaporation method. An appropriate amount of FP was dissolved in a suitable amount of ethyl acetate, which was later added to the adhesive and mixed thoroughly with a mechanical stirrer. The resulting solution was coated onto release liner (Scotch Pak® 9744, 3M, USA) by using lab coating unit (6025, BLD Instruments Co. Ltd., Guangdong, China). The coated laminate was dried at 50 °C for 15 min. After the solvent had been removed, it was covered with backing laminate (Scotch Pak® 9732, 3M).
Modified two-chamber diffusion cells with an effective diffusion area of 0.95 cm^2 were employed in the in vitro permeation experiment. The cells were kept at 32 °C by the circulated water bath and stirred with magnetic bars at 400 rpm. The dermis side of the skin was attached to one-half of the side-by-side diffusion cells, the FP patch was pressed on the skin with the adhesive side facing the SC, and pH 7.4 PBS was used as the receptor medium. At predetermined time points (2, 4, 6, 8, 10, 12 and 24 h), the receptor solution of 2.0 mL was withdrawn and equal volume PBS was added to maintain a constant volume of receptor solution.
The cumulative amount of each drug permeating per unit area (Q) versus time was plotted. Q24h=(3.5Ci+2.0∑i=1n−1Ci−1)/A
Q was the cumulative skin permeation amount. Ci was the concentration in the receiver compartment at time i, A was the effective diffusion area of diffusion.
The steady-state flux (Js, µg/cm^2/h) was calculated from the slope of linear region of the plot. The lag-time was determined by extrapolating the linear portion of the curve to the abscissa. Js=dQr/Adt
Enhancement ratio (ER) was used to evaluate the activity of the enhancers, which is the ratio of Q24h with enhancer to Q24h without enhancer. ER=Q24h(with enhancer)/Q24h(without enhancer)

[2] = In vivo pharmacokinetic study, transdermal patch administration; set-up: species or system rabbit; settings: rabbits, SR-FP patch with 5% enhancer or without (control); for V of R-FP: analyte R-; for V of S-FP: analyte S-
Procedure: Thirty-six male rabbits weighing 2.5 kg were divided into six groups, and the back skin was intact without erythema. For patch administration studies, patches without or with enhancers (120 mg/kg) were stuck to the shaved area of the rabbits. They were administered as follows: (1) control group: only the SR-FP; (2) enhancer group A: prepared SR-FP patch with 5% d-4-TER; (3) enhancer group B: prepared SR-FP patch with 5% d-4-T-dC18; (4) enhancer group C: prepared SR-FP patch with 5% l-4-T-dC18; (5) enhancer group D: prepared S-FP patch with 5% d-4-T-dC18; (6) enhancer group E: prepared R-FP patch with 5% d-4-T-dC18. In order to prevent the patches fallen off, gauze and medical tape were used to fix the patches. The blood from ear vein of rabbit was collected 0.5 mL at 0.5, 1, 2, 4, 6, 8, 12, 16, 20, 24, 26, 28, 30, 32, 36 and 48 h, and the patch was removed after 24 h, then the residual drug was wiped with physiological saline. The sample was processed by the same method as IV. All animal studies were carried out in accordance with the NIH Guidelines for the Care and Use of Laboratory Animals and were also approved by the Life Science Research Center of North China University of Science and Technology.
After being thawed and equilibrated to room temperature, an aliquot (100 μL) of plasma sample was spiked with […] (10 μL) of 40.0 μg/mL and 400 μL methanol. The samples were vortexed for 5 min and followed by centrifugation at 16,000 rpm for 10 min at 25 °C. After centrifugation, the supernatant was transferred to a clean tube and evaporated to dryness at 40 °C under a gentle stream of nitrogen. The dried samples were reconstituted with 100 μL mobile phase, vortexed and centrifuged before analysis.
Pharmacokinetic parameters were calculated using WinNonlin® software (Pharsight Corporation, San Diego, CA, USA) based on noncompartmental model, including the maximal plasma drug concentration (Cmax), the time to reach Cmax (Tmax) which were obtained from the observed data, the area under the time–concentration curve from time 0 to time t (AUC0–t) of distribution which was calculated using the linear trapezoidal rule, the mean residence time (MRT), the plasma clearance (Cl) and the apparent volume(V). Enhancement factor (Ef) was calculated from the following equation: Ef=AUC0−t(with enhancer)/AUC0−t(without enhancer)
The concentrations of drugs in the receptor medium or rabbit plasma were determined using a validated HPLC method. The HPLC system was equipped with a Shimadzu HPLC apparatus, including an LC-20AT pump, a SIL20A syringe, an SPD-20A detector, and a CTO-20A column oven. The propylparaben was used as an internal standard, and the flow rate of chromatographic analysis was set 1.0 mL/min. For in vitro analysis of SR-FP, thermo (USA) C18 column (150 mm × 4.6 mm, 5 μm particle) maintained at 40 °C was used to elute SR-FP, the mobile phase was used methanol and 1% aqueous glacial acetic acid (60:40, v/v) and the wavelength was set at 247 nm. The HPLC conditions of S-FP and R-FP were as follows: The column was CHIRALPAK®IA (4.6 mm × 250 mml, 5 μm particle diameter) of DAOCEL (Shanghai, China). The mobile phase consisted of acetonitrile and trifluoroacetic acid (0.05%, 50:50, v/v), the wavelength was set at 254 nm. For in vivo analysis of S-FP and R-FP, the mobile phase consisted of acetonitrile and trifluoroacetic acid (0.05%, 35:65, v/v), and other conditions were the same to in vitro analysis.
Absolute bioavailability (F) was calculated by the following equation: F=AUCpatch·Dosei.v./AUCi.v.·Dosepatch

Row | Compound | cumulative transport of SR-FP at 24 h ([1]; 3% enhancer level (w/w)) [μg/cm^2] | cumulative transport of SR-FP at 24 h ([1]; 5% enhancer level (w/w)) [μg/cm^2] | ER (Q24h with enhancer/Q24h without enhancer) for R-FP [1] | Tlag of R-FP [1] [h] | Js of R-FP [1] [μg/cm^2/h] | ER (Q24h with enhancer/Q24h without enhancer) for S-FP [1] | Tlag of S-FP [1] [h] | Js of S-FP [1] [μg/cm^2/h] | ER (Q24h with enhancer/Q24h without enhancer) for SR-FP [1] | Tlag of SR-FP [1] [h] | Js of SR-FP [1] [μg/cm^2/h] | V of R-FP [2] [L] | V of S-FP [2] [L] | Q24h of SR-FP ([1]; enhancer at same molar concentration as 5% 4-TER) [μg/cm^2]
1 | CC1=CCC(O)(C(C)C)CC1 (stereo not drawn) [d-4-TER, d-4-terpineol, reference compound] | 168.14 ± 19.95 | 266.01 ± 58.81 | 2.74 | 3.58 | 7.34 ± 2.51 | 2.97 | 2.45 | 7.60 ± 1.47 | 2.16 | 3.60 | 14.43 ± 3.62 | 251.59 ± 56.91 | 99.27 ± 18.81 | 
2 | CCCCCCCCC=CCCCCCCCC(=O)OC1(C(C)C)CC=C(C)CC1 (stereo not drawn) [d-4-T-dC18, d-4-methyl-1-(1-methylethyl)-3-cyclohexen-1-yl octadec-9-enoate] |  |  | 4.43 | 3.95 | 11.81 ± 1.23 | 4.13 | 4.08 | 10.99 ± 2.17 | 2.77 | 1.85 | 17.57 ± 4.13 | 139.60 ± 34.29 | 92.94 ± 28.69 | 
3 | CC1=CC[C@@](O)(C(C)C)CC1 [l-4-TER, l-4-terpineol, reference compound] | 145.16 ± 13.64 | 222.09 ± 19.19 | 2.64 | 3.82 | 6.99 ± 1.12 | 2.25 | 4.07 | 6.02 ± 0.99 | 1.81 | 3.13 | 11.43 ± 2.06 |  |  | 
4 | CCCCCCCCC=CCCCCCCCC(=O)OC1(C(C)C)CC=C(C)CC1 (stereo not drawn) [l-4-T-dC18, l-4-methyl-1-(1-methylethyl)-3-cyclohexen-1-yl octadec-9-enoate] |  |  | 4.6 | 3.68 | 12.04 ± 2.51 | 4.98 | 3.89 | 12.98 ± 3.51 | 4.45 | 3.61 | 20.53 ± 3.11 | 65.31 ± 28.90 | 68.51 ± 17.97 | 547.20 ± 35.94
